These results are taken from ChEMBL document CHEMBL1157446, “Cubyl amides: novel P2X7 receptor antagonists” (Bioorg Med Chem Lett, 2008).

Assay [1] deals with T1, P2X purinoceptor 7 (Rattus norvegicus) (UniProt Q64663).
T1 sequence (whole entry): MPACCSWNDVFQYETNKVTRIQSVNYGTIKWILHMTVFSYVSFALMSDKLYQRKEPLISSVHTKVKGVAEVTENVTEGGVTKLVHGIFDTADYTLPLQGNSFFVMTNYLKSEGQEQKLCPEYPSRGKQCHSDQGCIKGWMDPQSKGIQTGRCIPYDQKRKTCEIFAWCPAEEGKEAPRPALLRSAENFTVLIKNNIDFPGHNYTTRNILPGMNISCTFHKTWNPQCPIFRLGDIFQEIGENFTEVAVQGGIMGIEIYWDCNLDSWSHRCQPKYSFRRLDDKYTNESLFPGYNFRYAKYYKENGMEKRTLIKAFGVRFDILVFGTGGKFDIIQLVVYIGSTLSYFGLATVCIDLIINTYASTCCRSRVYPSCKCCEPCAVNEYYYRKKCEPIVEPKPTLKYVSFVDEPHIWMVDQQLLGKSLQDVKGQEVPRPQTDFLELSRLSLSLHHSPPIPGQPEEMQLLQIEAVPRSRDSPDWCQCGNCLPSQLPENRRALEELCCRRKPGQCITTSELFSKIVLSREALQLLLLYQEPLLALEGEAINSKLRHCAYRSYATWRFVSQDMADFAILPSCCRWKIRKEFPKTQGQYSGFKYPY
The experiment in a line: Antagonist activity at P2X7R in BzATP-stimulated rat spinal cord assessed as decrease in fluorescent propidium iodide dye uptake at 1 uM. It counts as functional.

The target of assay [2] is P2Y purinoceptor 1 (Homo sapiens) (UniProt P47900). In words: Activity at P2Y1 expressed in HEK293 cells at 10 uM to 1 nM. It counts as cell-based.
Chain of P2Y purinoceptor 1 (Homo sapiens) (P47900 whole entry): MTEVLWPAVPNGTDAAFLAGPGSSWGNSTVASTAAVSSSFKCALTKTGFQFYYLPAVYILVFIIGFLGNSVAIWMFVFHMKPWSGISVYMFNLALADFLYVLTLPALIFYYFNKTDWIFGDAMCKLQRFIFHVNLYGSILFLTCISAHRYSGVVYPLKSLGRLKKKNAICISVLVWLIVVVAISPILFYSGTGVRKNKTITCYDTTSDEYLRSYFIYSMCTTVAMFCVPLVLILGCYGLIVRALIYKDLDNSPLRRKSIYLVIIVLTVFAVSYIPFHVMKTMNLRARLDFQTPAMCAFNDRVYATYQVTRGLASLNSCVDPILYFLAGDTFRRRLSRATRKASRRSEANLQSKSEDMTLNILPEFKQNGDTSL
Assay [3] deals with P2Y purinoceptor 2 (Homo sapiens) (UniProt P41231). In words: Activity at P2Y2 receptor expressed in HEK293 cells at 10 uM to 1 nM. It counts as cell-based.
Chain of P2Y purinoceptor 2 (Homo sapiens) (P41231 whole entry): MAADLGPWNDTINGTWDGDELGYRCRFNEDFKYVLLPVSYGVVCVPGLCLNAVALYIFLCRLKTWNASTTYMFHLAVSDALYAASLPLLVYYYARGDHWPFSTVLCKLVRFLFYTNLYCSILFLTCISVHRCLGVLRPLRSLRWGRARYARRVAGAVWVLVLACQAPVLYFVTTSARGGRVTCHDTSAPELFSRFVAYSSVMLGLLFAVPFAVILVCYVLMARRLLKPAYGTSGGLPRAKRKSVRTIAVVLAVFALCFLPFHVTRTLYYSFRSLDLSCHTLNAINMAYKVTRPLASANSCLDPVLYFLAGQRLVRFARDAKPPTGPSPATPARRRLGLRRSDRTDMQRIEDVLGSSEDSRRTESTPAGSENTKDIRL
For assay [4], the target named is P2Y purinoceptor 4 (Homo sapiens) (UniProt P51582). In words: Agonist activity at P2Y4 receptor expressed in HEK293 cells at 10 uM to 1 nM. It counts as functional, cell-based.
Chain of P2Y purinoceptor 4 (Homo sapiens) (P51582 whole entry): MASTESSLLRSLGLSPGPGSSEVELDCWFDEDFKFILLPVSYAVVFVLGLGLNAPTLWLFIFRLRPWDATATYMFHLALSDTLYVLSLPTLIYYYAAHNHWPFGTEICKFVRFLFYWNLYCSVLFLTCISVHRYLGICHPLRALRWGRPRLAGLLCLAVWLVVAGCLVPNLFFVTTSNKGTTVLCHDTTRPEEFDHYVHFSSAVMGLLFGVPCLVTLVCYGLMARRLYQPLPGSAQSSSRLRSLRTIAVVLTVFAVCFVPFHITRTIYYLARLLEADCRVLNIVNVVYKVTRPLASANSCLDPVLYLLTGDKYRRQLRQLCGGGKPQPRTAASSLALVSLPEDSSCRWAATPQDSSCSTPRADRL

Calls of active or inactive are those of the source. The rule behind the calls is not given here.

On to `COc1ccc(Cl)c(C(=O)NCC23CC4CC(CC(C4)C2)C3)c1`, for which the result in assay [1] was Active. Besides, the result in assay [2], in assay [3] and in assay [4] was inactive.
For `COc1ccc(Cl)c(C(=O)NCC23C4C5C6C4C2C6C53)c1` (centres undefined), the result in assay [1] was Active. Further, the result in assay [2], in assay [3] and in assay [4] was inactive.
`O=C(NCC12CC3CC(CC(C3)C1)C2)c1ccc(F)cc1`: the result in assay [1] was Active. In addition, the outcome in assay [2], in assay [3] and in assay [4] was inactive.
On to `O=C(NCC12CC3CC(CC(C3)C1)C2)c1ccccc1F`, for which the outcome in assay [1] was Active. Also, the outcome in assay [2], in assay [3] and in assay [4] was inactive.
Consider `O=C(NCC12C3C4C5C3C1C5C42)c1ccccc1F` (centres undefined), for which the result in assay [1] was Active. Moreover, the result in assay [2], in assay [3] and in assay [4] was inactive.
As to `O=C(NCC12C3C4C5C3C1C5C42)c1ccc(F)cc1` (centres undefined), in assay [1], the outcome was Active. The outcome in assay [2], in assay [3] and in assay [4] was inactive.
